The values below come from ChEMBL document CHEMBL1151093, “6,7,8,9-tetrahydro-3-hydroxy-1H-1-benzazepine-2,5-diones via a diels-alder reaction:antagonists with a non-planar hydrophobic region for NMDA receptor glycine sites” (Bioorg Med Chem Lett, 1995).

This assay has as its target Glutamate receptor ionotropic, NMDA 1 (Rattus norvegicus, UniProt P35439). Description: Tested for the inhibition of [3H]5,7-dichlorokynurenic acid (DCKA) binding to NMDA receptor.

With `O=c1cc(O)c2ccccc2[nH]c1=O`, the IC50 was found to be 827 nM. The compound `O=c1cc(O)c2c([nH]c1=O)CC(Cl)C(Cl)C2` (stereo not given) came in with an IC50 of 131 nM. As for `O=c1cc(O)c2ccc(Cl)cc2[nH]c1=O`, the IC50 worked out at 13 nM. As to `CC1Cc2[nH]c(=O)c(=O)cc(O)c2CC1C` (stereo not given), the IC50 stood at 228 nM. This IC50 is about 18-fold higher than that of the compound before. Under `O=c1cc(O)c2c([nH]c1=O)CCCC2` stands 3210 nM.
